In US20060009478A1, “Methods for the treatment of back pain” (priority 2003, published 2006):

Legend:
[1] = test system: patients with moderate to severe chronic low back pain; test: Short Opiate Withdrawal Scale (SOWS), low back pain study; conditions: for SOWS change from baseline, MAX / SOWS change from baseline, MEAN(SD) / SOWS change from baseline, MEDIAN / SOWS change from baseline, MIN / SOWS score, MAX / SOWS score, MEAN(SD) / SOWS score, MEDIAN / SOWS score, MIN / SOWS change from baseline, MAXIMUM / SOWS change from baseline, MINIMUM / SOWS score, MAXIMUM / SOWS score, MINIMUM: ITT
[2] = test system: patients with moderate to severe chronic pain due to osteoarthritis of the hip or knee; test: Quality of analgesia, 3-week osteoarthritis study; type: in vivo, human
Experimental: Quality of Analgesia was assessed weekly at clinic visits. The patient was prompted with the question, “How would you rate the quality of your pain relief at this time?”, and responses were selected from poor, fair, good, very good, and excellent.
The global assessment, quality of analgesia, and pain control, recorded at the end of each week, were summarized in terms of category proportions.
For secondary analysis of data, pain intensity changes, SF-12, and WOMAC were analyzed with the ANOVA methods as described above. Within treatment arms, weeks were compared in pairwise fashion using paired-sample methods. The global assessments, quality of analgesia ratings, and pain control was analyzed at each week, globally and in pairwise fashion, using the Cocharan-Mantel-Haenszel row mean scores (CMH-RMS) test, using equally spaced scores. An “observed data” analysis, without any data imputation, was conducted on pain intensity changes, global assessments, quality of analgesia ratings, pain control, SF-12, and WOMAC using the same analysis methods described previously.

[3] = all patients, change from baseline to day 1
[4] = all patients, change from baseline to day 2
[5] = all patients, change from baseline to day 3
[6] = all patients, change from baseline to day 4
[7] = all patients, last dose date (baseline)
[8] = all patients, opioid withdrawal monitoring day 1
[9] = all patients, opioid withdrawal monitoring day 2
[10] = all patients, opioid withdrawal monitoring day 3
[11] = all patients, opioid withdrawal monitoring day 4
[12] = patients with <4 weeks of dosing, change from baseline to day 1
[13] = patients with <4 weeks of dosing, change from baseline to day 2
[14] = patients with <4 weeks of dosing, change from baseline to day 3
[15] = patients with <4 weeks of dosing, change from baseline to day 4
[16] = patients with <4 weeks of dosing, last dose date (baseline)
[17] = patients with <4 weeks of dosing, opioid withdrawal monitoring day 1
[18] = patients with <4 weeks of dosing, opioid withdrawal monitoring day 2
[19] = patients with <4 weeks of dosing, opioid withdrawal monitoring day 3
[20] = patients with <4 weeks of dosing, opioid withdrawal monitoring day 4
[21] = patients with ≧4 weeks of dosing, change from baseline to day 1
[22] = patients with ≧4 weeks of dosing, change from baseline to day 2
[23] = patients with ≧4 weeks of dosing, change from baseline to day 3
[24] = patients with ≧4 weeks of dosing, change from baseline to day 4
[25] = patients with ≧4 weeks of dosing, last dose date (baseline)
[26] = patients with ≧4 weeks of dosing, opioid withdrawal monitoring day 1
[27] = patients with ≧4 weeks of dosing, opioid withdrawal monitoring day 2
[28] = patients with ≧4 weeks of dosing, opioid withdrawal monitoring day 3
[29] = patients with ≧4 weeks of dosing, opioid withdrawal monitoring day 4
[30] = ITT (N = 102 per active group), LOCF

COc1ccc2c3c1O[C@H]1C(=O)CC[C@@]4(O)[C@@H](C2)N(C)CC[C@]314 [OXY QID, oxycodone]
SOWS change from baseline, MAX [1, 3]: 1.9 | SOWS change from baseline, MEAN(SD) [1, 3]: 0.3 (0.47) | SOWS change from baseline, MEDIAN [1, 3]: 0.2 | SOWS change from baseline, MIN [1, 3]: −0.7 | SOWS change from baseline, MAX [1, 4]: 2.4 | SOWS change from baseline, MEAN(SD) [1, 4]: 0.3 (0.53) | SOWS change from baseline, MEDIAN [1, 4]: 0.2 | SOWS change from baseline, MIN [1, 4]: −1.1 | SOWS change from baseline, MAX [1, 5]: 1.7 | SOWS change from baseline, MEAN(SD) [1, 5]: 0.2 (0.48) | SOWS change from baseline, MEDIAN [1, 5]: 0.2 | SOWS change from baseline, MIN [1, 5]: −1.1 | SOWS change from baseline, MAX [1, 6]: 2.7 | SOWS change from baseline, MEAN(SD) [1, 6]: 0.2 (0.54) | SOWS change from baseline, MEDIAN [1, 6]: 0.1 | SOWS change from baseline, MIN [1, 6]: −1.1 | SOWS score, MAX [1, 7]: 1.5 | SOWS score, MEAN(SD) [1, 7]: 0.3 (0.36) | SOWS score, MEDIAN [1, 7]: 0.2 | SOWS score, MIN [1, 7]: 0.0 | SOWS score, MAX [1, 8]: 2.5 | SOWS score, MEAN(SD) [1, 8]: 0.5 (0.52) | SOWS score, MEDIAN [1, 8]: 0.4 | SOWS score, MIN [1, 8]: 0.0 | SOWS score, MAX [1, 9]: 2.5 | SOWS score, MEAN(SD) [1, 9]: 0.5 (0.54) | SOWS score, MEDIAN [1, 9]: 0.4 | SOWS score, MIN [1, 9]: 0.0 | SOWS score, MAX [1, 10]: 2.2 | SOWS score, MEAN(SD) [1, 10]: 0.5 (0.53) | SOWS score, MEDIAN [1, 10]: 0.4 | SOWS score, MIN [1, 10]: 0.0 | SOWS score, MAX [1, 11]: 2.7 | SOWS score, MEAN(SD) [1, 11]: 0.4 (0.54) | SOWS score, MEDIAN [1, 11]: 0.3 | SOWS score, MIN [1, 11]: 0.0 | SOWS change from baseline, MAX [1, 12]: 0.2 | SOWS change from baseline, MEAN(SD) [1, 12]: 0.0 (0.16) | SOWS change from baseline, MEDIAN [1, 12]: 0.0 | SOWS change from baseline, MIN [1, 12]: −0.2 | SOWS change from baseline, MAX [1, 13]: 1.3 | SOWS change from baseline, MEAN(SD) [1, 13]: 0.2 (0.66) | SOWS change from baseline, MEDIAN [1, 13]: 0.1 | SOWS change from baseline, MIN [1, 13]: −0.5 | SOWS change from baseline, MAX [1, 14]: 1.3 | SOWS change from baseline, MEAN(SD) [1, 14]: 0.2 (0.67) | SOWS change from baseline, MEDIAN [1, 14]: 0.0 | SOWS change from baseline, MIN [1, 14]: −0.5 | SOWS change from baseline, MAX [1, 15]: 0.8 | SOWS change from baseline, MEAN(SD) [1, 15]: 0.2 (0.41) | SOWS change from baseline, MEDIAN [1, 15]: 0.1 | SOWS change from baseline, MIN [1, 15]: −0.1 | SOWS score, MAX [1, 16]: 0.7 | SOWS score, MEAN(SD) [1, 16]: 0.3 (0.29) | SOWS score, MEDIAN [1, 16]: 0.2 | SOWS score, MIN [1, 16]: 0.0 | SOWS score, MAX [1, 17]: 0.9 | SOWS score, MEAN(SD) [1, 17]: 0.2 (0.27) | SOWS score, MEDIAN [1, 17]: 0.1 | SOWS score, MIN [1, 17]: 0.0 | SOWS score, MAX [1, 18]: 1.3 | SOWS score, MEAN(SD) [1, 18]: 0.2 (0.38) | SOWS score, MEDIAN [1, 18]: 0.0 | SOWS score, MIN [1, 18]: 0.0 | SOWS score, MAX [1, 19]: 1.3 | SOWS score, MEAN(SD) [1, 19]: 0.2 (0.39) | SOWS score, MEDIAN [1, 19]: 0.0 | SOWS score, MIN [1, 19]: 0.0 | SOWS score, MAX [1, 20]: 0.8 | SOWS score, MEAN(SD) [1, 20]: 0.1 (0.26) | SOWS score, MEDIAN [1, 20]: 0.0 | SOWS score, MIN [1, 20]: 0.0 | SOWS change from baseline, MAXIMUM [1, 21]: 1.9 | SOWS change from baseline, MEAN(SD) [1, 21]: 0.3 (0.48) | SOWS change from baseline, MEDIAN [1, 21]: 0.2 | SOWS change from baseline, MINIMUM [1, 21]: −0.7 | SOWS change from baseline, MAXIMUM [1, 22]: 2.4 | SOWS change from baseline, MEAN(SD) [1, 22]: 0.3 (0.52) | SOWS change from baseline, MEDIAN [1, 22]: 0.2 | SOWS change from baseline, MINIMUM [1, 22]: −1.1 | SOWS change from baseline, MAXIMUM [1, 23]: 1.7 | SOWS change from baseline, MEAN(SD) [1, 23]: 0.3 (0.48) | SOWS change from baseline, MEDIAN [1, 23]: 0.2 | SOWS change from baseline, MINIMUM [1, 23]: −1.1 | SOWS change from baseline, MAXIMUM [1, 24]: 2.7 | SOWS change from baseline, MEAN(SD) [1, 24]: 0.2 (0.55) | SOWS change from baseline, MEDIAN [1, 24]: 0.1 | SOWS change from baseline, MINIMUM [1, 24]: −1.1 | SOWS score, MAXIMUM [1, 25]: 1.5 | SOWS score, MEAN(SD) [1, 25]: 0.3 (0.37) | SOWS score, MEDIAN [1, 25]: 0.2 | SOWS score, MINIMUM [1, 25]: 0.0 | SOWS score, MAXIMUM [1, 26]: 2.5 | SOWS score, MEAN(SD) [1, 26]: 0.5 (0.53) | SOWS score, MEDIAN [1, 26]: 0.4 | SOWS score, MINIMUM [1, 26]: 0.0 | SOWS score, MAXIMUM [1, 27]: 2.5 | SOWS score, MEAN(SD) [1, 27]: 0.6 (0.54) | SOWS score, MEDIAN [1, 27]: 0.4 | SOWS score, MINIMUM [1, 27]: 0.0 | SOWS score, MAXIMUM [1, 28]: 2.2 | SOWS score, MEAN(SD) [1, 28]: 0.6 (0.53) | SOWS score, MEDIAN [1, 28]: 0.4 | SOWS score, MINIMUM [1, 28]: 0.0 | SOWS score, MAXIMUM [1, 29]: 2.7 | SOWS score, MEAN(SD) [1, 29]: 0.5 (0.55) | SOWS score, MEDIAN [1, 29]: 0.3 | SOWS score, MINIMUM [1, 29]: 0.0 | Mean SOWS score in the first 24 hours following drug discontinuation ([1]; patients with ≧4 weeks of dosing, p<0.01): 2.6 | Quality of analgesia Week 1: EXCELLENT (4), number (%) of patients [2, 30]: 3 (2.9%) | Quality of analgesia Week 1: FAIR (1), number (%) of patients [2, 30]: 31 (30.4%) | Quality of analgesia Week 1: GOOD (2), number (%) of patients [2, 30]: 18 (37.3%) | Quality of analgesia Week 1: POOR (0), number (%) of patients [2, 30]: 18 (17.6%) | Quality of analgesia Week 1: VERY GOOD (3), number (%) of patients [2, 30]: 8 (7.8%) | Quality of analgesia Week 2: EXCELLENT (4), number (%) of patients [2, 30]: 4 (3.9%) | Quality of analgesia Week 2: FAIR (1), number (%) of patients [2, 30]: 29 (28.4%) | Quality of analgesia Week 2: GOOD (2), number (%) of patients [2, 30]: 30 (29.4%) | Quality of analgesia Week 2: POOR (0), number (%) of patients [2, 30]: 19 (18.6%) | Quality of analgesia Week 2: VERY GOOD (3), number (%) of patients [2, 30]: 16 (15.7%) | Quality of analgesia Week 3: EXCELLENT (4), number (%) of patients [2, 30]: 5 (4.9%) | Quality of analgesia Week 3: FAIR (1), number (%) of patients [2, 30]: 23 (22.5%) | Quality of analgesia Week 3: GOOD (2), number (%) of patients [2, 30]: 32 (31.4%) | Quality of analgesia Week 3: POOR (0), number (%) of patients [2, 30]: 23 (22.5%) | Quality of analgesia Week 3: VERY GOOD (3), number (%) of patients [2, 30]: 15 (14.7%) | Patients reporting a quality of analgesia assessment of very good or excellent at Week 3 ([2]; Week 3): 19.6%
